Source: ChEMBL document CHEMBL1201862, “PubChem BioAssay data set” (2004)
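Dose response: 5 concentrations. Exposure: 48 h. Format: 96-well plates. Endpoint: linear interpolation; highest concentration if not reached. At the GI50, growth is halved.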 Calls of active or inactive are those of the source. Cut-off read from the data, not from the text of the source: active = GI50 up to about 1.1 µM and inactive = higher.

Assays:
Assay in all cases: DTP human tumour cell line panel, 48 h
MOLT-4 = tested on: MOLT-4
OVCAR-4 = tested on: OVCAR-4
TK-10 = tested on: TK-10
ACHN = tested on: ACHN
K562 = tested on: K562
LXFL 529 = tested on: LXFL 529
IGROV-1 = tested on: IGROV-1
HL-60 = tested on: HL-60
CCRF-CEM = tested on: CCRF-CEM
M14 = tested on: M14
HCT-15 = tested on: HCT-15
CAKI-1 = tested on: CAKI-1
SW-620 = tested on: SW-620
DMS-114 = tested on: DMS-114
HCC 2998 = tested on: HCC 2998
DMS-273 = tested on: DMS-273
SK-MEL-2 = tested on: SK-MEL-2
Malme-3M = tested on: Malme-3M
LOX IMVI = tested on: LOX IMVI
SK-OV-3 = tested on: SK-OV-3
SK-MEL-5 = tested on: SK-MEL-5
786-0 = tested on: 786-0
A549 = tested on: A549
HOP-62 = tested on: HOP-62
UACC-62 = tested on: UACC-62
OVCAR-8 = tested on: OVCAR-8
XF498 = tested on: XF498
U-251 = tested on: U-251
DLD-1 = tested on: DLD-1
SR = tested on: SR
OVCAR-5 = tested on: OVCAR-5
KM-20L2 = tested on: KM-20L2
RPMI-8226 = tested on: RPMI-8226
EKVX = tested on: EKVX
SN12C = tested on: SN12C
COLO 205 = tested on: COLO 205
HOP-18 = tested on: HOP-18
SNB-75 = tested on: SNB-75
NCI-H460 = tested on: NCI-H460
SK-MEL-28 = tested on: SK-MEL-28
KM12 = tested on: KM12
A498 = tested on: A498
NCI-H522 = tested on: NCI-H522
NCI-H226 = tested on: NCI-H226
SNB-19 = tested on: SNB-19
UACC-257 = tested on: UACC-257
HT-29 = tested on: HT-29
HCT-116 = tested on: HCT-116
UO-31 = tested on: UO-31
HOP-92 = tested on: HOP-92
RXF 393 = tested on: RXF 393
NCI-H23 = tested on: NCI-H23
OVCAR-3 = tested on: OVCAR-3
SF-295 = tested on: SF-295
SF-539 = tested on: SF-539
SF-268 = tested on: SF-268
M19-MEL = tested on: M19-MEL

Compound: C=C(Cl)Cc1c(O)c2c(c(O)c1CC(=C)Cl)C(=O)c1ccccc1C2=O
- GI50 (MOLT-4): > 100 µM (inactive)
- GI50 (OVCAR-4): > 100 µM (inactive)
- GI50 (TK-10): > 100 µM (inactive)
- GI50 (ACHN): > 100 µM (inactive)
- GI50 (K562): > 100 µM (inactive)
- GI50 (LXFL 529): > 100 µM (inactive)
- GI50 (IGROV-1): > 100 µM (inactive)
- GI50 (HL-60): > 100 µM (inactive)
- GI50 (CCRF-CEM): > 100 µM (inactive)
- GI50 (M14): > 100 µM (inactive)
- GI50 (HCT-15): > 100 µM
- GI50 (CAKI-1): > 100 µM (inactive)
- GI50 (SW-620): > 100 µM (inactive)
- GI50 (DMS-114): > 100 µM (inactive)
- GI50 (HCC 2998): > 100 µM (inactive)
- GI50 (DMS-273): > 100 µM (inactive)
- GI50 (SK-MEL-2): > 100 µM (inactive)
- GI50 (Malme-3M): > 100 µM (inactive)
- GI50 (LOX IMVI): > 100 µM (inactive)
- GI50 (SK-OV-3): > 100 µM (inactive)
- GI50 (SK-MEL-5): > 100 µM (inactive)
- GI50 (786-0): > 100 µM (inactive)
- GI50 (A549): > 100 µM (inactive)
- GI50 (HOP-62): > 100 µM (inactive)
- GI50 (UACC-62): > 100 µM (inactive)
- GI50 (OVCAR-8): > 100 µM (inactive)
- GI50 (XF498): > 100 µM (inactive)
- GI50 (U-251): > 100 µM (inactive)
- GI50 (DLD-1): > 100 µM (inactive)
- GI50 (SR): > 100 µM (inactive)
- GI50 (OVCAR-5): > 100 µM (inactive)
- GI50 (KM-20L2): > 100 µM (inactive)
- GI50 (RPMI-8226): > 100 µM (inactive)
- GI50 (EKVX): > 100 µM (inactive)
- GI50 (SN12C): > 100 µM (inactive)
- GI50 (COLO 205): > 100 µM (inactive)

Compound: O=C(CC/C=C(/CS(=O)(=O)c1ccccc1)S(=O)(=O)c1ccccc1)c1ccccc1
- GI50 (HOP-18): > 100 µM (inactive)
- GI50 (SNB-75): 25.6 µM (inactive)
- GI50 (MOLT-4): > 100 µM (inactive)
- GI50 (OVCAR-4): > 100 µM (inactive)
- GI50 (TK-10): > 100 µM (inactive)
- GI50 (ACHN): > 100 µM (inactive)
- GI50 (K562): > 100 µM (inactive)
- GI50 (IGROV-1): > 100 µM (inactive)
- GI50 (NCI-H460): > 100 µM (inactive)
- GI50 (HL-60): 42.9 µM (inactive)
- GI50 (SK-MEL-28): > 100 µM (inactive)
- GI50 (KM12): > 100 µM (inactive)
- GI50 (CCRF-CEM): 12.1 µM (inactive)
- GI50 (M14): > 100 µM (inactive)
- GI50 (HCT-15): > 100 µM
- GI50 (A498): > 100 µM (inactive)
- GI50 (NCI-H522): 10.4 µM (inactive)
- GI50 (SW-620): > 100 µM (inactive)
- GI50 (DMS-114): 21.7 µM (inactive)
- GI50 (HCC 2998): > 100 µM (inactive)
- GI50 (DMS-273): > 100 µM (inactive)
- GI50 (SK-MEL-2): 50.8 µM (inactive)
- GI50 (Malme-3M): > 10 µM (inactive)
- GI50 (LOX IMVI): > 100 µM (inactive)
- GI50 (SK-OV-3): 44 µM (inactive)
- GI50 (SK-MEL-5): > 100 µM (inactive)
- GI50 (NCI-H226): > 100 µM (inactive)
- GI50 (A549): > 100 µM (inactive)
- GI50 (SNB-19): > 100 µM (inactive)
- GI50 (UACC-257): > 100 µM (inactive)
- GI50 (HOP-62): > 100 µM (inactive)
- GI50 (UACC-62): 22.2 µM (inactive)
- GI50 (HT-29): 75 µM (inactive)
- GI50 (HCT-116): > 100 µM (inactive)
- GI50 (OVCAR-8): > 100 µM (inactive)
- GI50 (XF498): 95.9 µM (inactive)
- GI50 (UO-31): > 100 µM (inactive)
- GI50 (HOP-92): > 100 µM (inactive)
- GI50 (U-251): 72.3 µM (inactive)
- GI50 (RXF 393): 70.8 µM (inactive)
- GI50 (NCI-H23): > 100 µM (inactive)
- GI50 (DLD-1): > 100 µM (inactive)
- GI50 (SR): 56.8 µM (inactive)
- GI50 (OVCAR-5): > 100 µM (inactive)
- GI50 (OVCAR-3): 85.5 µM (inactive)
- GI50 (KM-20L2): > 100 µM (inactive)
- GI50 (RPMI-8226): > 100 µM (inactive)
- GI50 (EKVX): > 100 µM (inactive)
- GI50 (SN12C): > 100 µM (inactive)
- GI50 (SF-295): > 100 µM (inactive)
- GI50 (SF-539): > 100 µM (inactive)

Compound: CC(=O)Nc1cc(N(CCOS(C)(=O)=O)CCOS(C)(=O)=O)ccc1N=O
- GI50 (SNB-75): > 100 µM (inactive)
- GI50 (MOLT-4): > 100 µM (inactive)
- GI50 (OVCAR-4): > 100 µM (inactive)
- GI50 (TK-10): > 100 µM (inactive)
- GI50 (SF-268): > 100 µM (inactive)
- GI50 (ACHN): > 100 µM (inactive)
- GI50 (K562): > 100 µM (inactive)
- GI50 (LXFL 529): > 100 µM (inactive)
- GI50 (IGROV-1): > 100 µM (inactive)
- GI50 (NCI-H460): > 100 µM (inactive)
- GI50 (HL-60): > 100 µM (inactive)
- GI50 (SK-MEL-28): > 100 µM (inactive)
- GI50 (KM12): > 100 µM (inactive)
- GI50 (CCRF-CEM): > 100 µM (inactive)
- GI50 (M14): > 100 µM (inactive)
- GI50 (HCT-15): > 100 µM
- GI50 (M19-MEL): > 100 µM (inactive)
- GI50 (NCI-H522): > 100 µM (inactive)
- GI50 (CAKI-1): > 100 µM (inactive)
- GI50 (SW-620): > 100 µM (inactive)
- GI50 (DMS-114): > 100 µM (inactive)
- GI50 (HCC 2998): > 100 µM (inactive)
- GI50 (DMS-273): > 100 µM (inactive)
- GI50 (SK-MEL-2): > 100 µM (inactive)
- GI50 (Malme-3M): > 100 µM (inactive)
- GI50 (SK-MEL-5): > 100 µM (inactive)
- GI50 (786-0): > 100 µM (inactive)
- GI50 (NCI-H226): > 100 µM (inactive)
- GI50 (A549): > 100 µM (inactive)
- GI50 (SNB-19): > 100 µM (inactive)
- GI50 (UACC-257): > 100 µM (inactive)
- GI50 (HOP-62): > 100 µM (inactive)
- GI50 (UACC-62): > 100 µM (inactive)
- GI50 (HT-29): > 100 µM (inactive)
- GI50 (HCT-116): > 100 µM (inactive)
- GI50 (OVCAR-8): > 100 µM (inactive)
- GI50 (XF498): > 100 µM (inactive)
- GI50 (UO-31): > 100 µM (inactive)
- GI50 (HOP-92): > 100 µM (inactive)
- GI50 (U-251): > 100 µM (inactive)
- GI50 (NCI-H23): > 100 µM (inactive)
- GI50 (DLD-1): > 100 µM (inactive)
- GI50 (SR): > 100 µM (inactive)
- GI50 (OVCAR-5): > 100 µM (inactive)
- GI50 (OVCAR-3): > 100 µM (inactive)
- GI50 (KM-20L2): > 100 µM (inactive)
- GI50 (RPMI-8226): > 100 µM (inactive)
- GI50 (SF-295): > 100 µM (inactive)
- GI50 (SF-539): > 100 µM (inactive)
- GI50 (COLO 205): > 100 µM (inactive)
